Laboratory results: patent publication US6228382A, “Microbiocidal mixtures” (ETC C.V., priority 1996, dated 2001)
Each block holds one molecule with its values, some of them ahead of it.

Assays:
[1] = Determination of the octanol/water partition coefficients (logPow) by HPLC, OECD guideline 117; type: physicochemical; conditions: rp 18 hplc; HPLC method, RP 18 column, OECD 117; read-out: logPow (octanol/water partition coefficient)
[2] = Determination of the relative leaching rate from house paint (watering with tap water, HPLC of methanol extracts); type: physicochemical
Description: First, 128 parts by weight (PW) of water were initially charged. 11 PW of a 10% strength by weight solution of Calgon N (sodium triphosphate) were subsequently stirred into the water. Thereafter, 2 PW of Tylose MHB 6000 (from Hoechst AG), 3 PW of Additol XW 330 (from Hoechst AG), 4 PW of Agitan 260 (from Munzing-Chemie, Heilbronn), 226 PW of titanium dioxide (for example from Kronos 2065), 375 PW of MOWILITH® DM 771 (about 50%) (from. HOECHST), 84 PW of Omyacarb 5 (from Omya), 84 PW of Micro Mica W1, 38 PW of Micro Talc AT 1 and 20 PW of China Clay D were added and homogenized. 11 PW of white spirit, 8 PW of butyl diglycol acetate and 4 PW of MERGAL® K 9 N (Riedel de Haen) were stirred into the resulting mixture. The pH of the resulting house paint was 8.8.
The preservatives listed in Table 2 were homogeneously dispersed into the resulting house paint.
The resulting paint sample was in each case drawn out to a film of approximately 150 g/m^2 on paper, using a knife. The paint sample prepared in this manner was subsequently dried at a temperature of 30° C. for 72 hours.
Test samples having a diameter of 5.5 cm were punched out from the paint sample. To simulate leaching by rainwater, these paint-coated test samples were watered with tap water (46.7 1/day/m^2 of paint). Test samples were taken in each case after 24 hours and air-dried for 72 hours.
To determine the microbicide concentration, in each case one specimen was extracted in methanol. The methanol extracts were analysed by HPLC. […]
column: RP-phenyl (Hypersil 5 μ) mobile phase: gradient water/acetonitrile
UV-Detector: 220 nm and 200 nm
Since in each analysis, the substances listed in Table 3 were measured as the area under the HPLC signal, it is possible to relate the leaching rates directly to the known active compounds OITZ and Mctt.

SMILES: CCCCCCCCn1sccc1=O [OITZ, 2-n-octylisothiazolin-3-one]
chromatographic logP [1]: 2.89

chromatographic logP [1]: 3.51
SMILES: CCCCCCCCCn1sccc1=O [NITZ, 2-n-nonylisothiazolin-3-one]

chromatographic logP [1]: 5.36
SMILES: CCCCCCCCCCCCn1sccc1=O [dodecyl-ITZ, 2-n-dodecylisothiazolin-3-one]

chromatographic logP [1]: 4.76
SMILES: CCCCCCCCCCCn1sccc1=O [compound 11, 2-n-undecylisothiazolin-3-one]

HPLC area ([2]; 0 h watering): 955.2 arbitrary units
HPLC relative area ([2]; 0 h watering): 1
HPLC area ([2]; 24 h watering): 787.1 arbitrary units
HPLC relative area ([2]; 24 h watering): 0.824
HPLC area ([2]; 48 h watering): 800.2 arbitrary units
HPLC relative area ([2]; 48 h watering): 0.837
HPLC area ([2]; 72 h watering): 677.6 arbitrary units
HPLC relative area ([2]; 72 h watering): 0.708
HPLC area ([2]; 96 h watering): 547.4 arbitrary units
HPLC relative area ([2]; 96 h watering): 0.572
SMILES: CSc1nc(NC2CC2)nc(NC(C)(C)C)n1 [Mctt, 2-methylthio-4-cyclopropylamino-6-t-butylamino-1,3,5-triazine]

chromatographic logP [1]: 4.14
SMILES: CCCCCCCCCCn1sccc1=O [DITZ, 2-n-decyl-isothiazolin-3-one]
